# According to patent US20020137929A1, “1 - (3-heterocyclylphenyl) isothiourea, -isourea, -guanidine and -amidine herbicidal agents” (Intellectual Property Department, BASF Aktiengesellschaft, priority 1998, published 2002):
# Columns and labels:
# ZEAMX (Corn, Field) = experiment: Preemergence herbicidal evaluation; assay type: in vivo, Zea mays; settings: rated 4-5 weeks after treatment
# Summary of the method: (§1)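 Seeds were planted in potting soil in cups, then sprayed preemergence with the test compound in aqueous acetone at about 0.0156 to 0.500 kg per hectare. Cups were kept under greenhouse conditions and visually rated 4–5 weeks after treatment on a 0–9 scale against an untreated control.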
# [1] = tested on: TRZAWR (Wheat, Winter, cv Riband); experiment: Preemergence herbicidal evaluation; assay type: in vivo, Triticum aestivum; settings: rated 4-5 weeks after treatment
# From the text: Results of herbicide evaluation are expressed on a rating scale (0-9). The scale is based upon a visual observation of plant stand, vigor, malformation, size, chlorosis and overall plant appearance as compared with a control.
# The preemergence herbicidal activity of the test compounds of the present invention is exemplified by the following tests in which the seeds of a variety of monocotyledonous and dicotyledonous plants are separately mixed with potting soil and planted on top of approximately one inch of soil in separate pint cups. After planting, the cups are sprayed with the selected aqueous acetone solution containing test compound in sufficient quantity to provide the equivalent of about 0.0156 to 0.500 kg per hectare of test compound per cup. The treated cups are then placed on greenhouse benches, watered and cared for in accordance with conventional greenhouse procedures. From four to five weeks after treatment, the tests are terminated and each cup is examined and rated according to the rating system provided in Example 37.
# The compounds evaluated are reported by compound number given in Example 37.
# [2] = tested on: ECHORC (Watergrass (Calif.)); experiment: Preemergence weed control under flooded paddy conditions; assay type: in vivo, Echinochloa oryzoides; settings: rated 3-4 weeks after treatment
# Summary of the method: (§2)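 Silt loam, seeds in top 0.5 cm; flood held 1.5-3 cm; test cpd as acetone/water 50/50 into flood water, ~0.0313-0.500 kg/ha a.i.; greenhouse 3-4 wk; visual 0-9 score vs control.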
# ABUTH (Velvetleaf) = experiment: Postemergence herbicidal evaluation; assay type: in vivo, Abutilon theophrasti; settings: postemergence
# Summary of the method: (§3)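 Herbicidal effect was judged by eye on a 0–9 scale covering stand, vigor, deformity, size and chlorosis, compared with controls, four to five weeks after seedlings about two weeks old were sprayed (40 psi, ~0.0156–0.500 kg/ha).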
# GALAP (Galium) = experiment: Postemergence herbicidal evaluation; assay type: in vivo, Galium aparine; settings: postemergence
# Summary of the method: as §3
# SETVI (Foxtail, Green) = experiment: Postemergence herbicidal evaluation; assay type: in vivo, Setaria viridis; settings: postemergence
# Summary of the method: as §3
# CYPIR (Rice Flatsedge) = experiment: Preemergence weed control under flooded paddy conditions; assay type: in vivo, Cyperus iria; settings: rated 3-4 weeks after treatment
# Summary of the method: as §2
# ORYSAT (Rice, Tebonnet) = experiment: Postemergence herbicidal evaluation; assay type: in vivo, Oryza sativa, (L.) Tebonnet; settings: postemergence
# Summary of the method: as §3
# MOOVA (Monochoria) = experiment: Preemergence weed control under flooded paddy conditions; assay type: in vivo, Monochoria vaginalis; settings: rated 3-4 weeks after treatment
# Summary of the method: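 Ratings on a 0-9 visual scale cover stand, vigor, malformation, size, chlorosis and overall appearance relative to a control, taken three to four weeks post-treatment. Application was into flood water over freshly sown silt loam at roughly 0.0313 to 0.500 kg/ha.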
# ECHCG (Barnyardgrass) = experiment: Postemergence herbicidal evaluation; assay type: in vivo, Echinochloa crus-galli; settings: postemergence
# Summary of the method: as §3
# [3] = tested on: IPOHE (Morningglory, Ivyleaf); experiment: Preemergence herbicidal evaluation; assay type: in vivo, Ipomoea hederacea; settings: rated 4-5 weeks after treatment
# Summary of the method: as §1
# [4] = rate 0.1250 kg/ha, rating scale 0-9
# [5] = rate 0.2500 kg/ha, rating scale 0-9
structure (smiles),measurement,setting,value
"COC(=O)CSCCN1C(=O)CSC1=Nc1cc(-n2c(=O)cc(C(F)(F)F)n(C)c2=O)c(F)cc1Cl [Compound 158, Methyl {{2-{2-{{2-chloro-5-[3,6-dihydro-3-methyl-2,6-dioxo-4-(trifluoromethyl)-1(2H)-pyrimidinyl]-4-fluorophenyl}imino}-4-oxo-3-thiazolidinyl}ethyl}-thio}acetate]",Preemergence herbicidal rating ZEAMX,"ZEAMX (Corn, Field); 0.0156 kg/ha",5.0
same,Preemergence herbicidal rating ZEAMX,"ZEAMX (Corn, Field); 0.0313 kg/ha",7.0
same,Preemergence herbicidal rating ZEAMX,"ZEAMX (Corn, Field); 0.0625 kg/ha",8.0
same,Preemergence herbicidal rating ZEAMX,"ZEAMX (Corn, Field); [4]",9.0
same,Preemergence herbicidal rating ZEAMX,"ZEAMX (Corn, Field); [5]",9.0
same,Preemergence herbicidal rating TRZAWR,[1]; 0.0156 kg/ha,1.0
same,Preemergence herbicidal rating TRZAWR,[1]; 0.0313 kg/ha,4.0
same,Preemergence herbicidal rating TRZAWR,[1]; 0.0625 kg/ha,5.0
same,Preemergence herbicidal rating TRZAWR,[1]; [4],7.0
same,Preemergence herbicidal rating TRZAWR,[1]; [5],7.0
same,"herbicidal effect rating, ECHORC",[2]; 0.0313 kg/ha,9.0
same,"herbicidal effect rating, ECHORC",[2]; 0.0625 kg/ha,9.0
same,"herbicidal effect rating, ECHORC",[2]; 0.1250 kg/ha,9.0
same,"herbicidal effect rating, ECHORC",[2]; 0.2500 kg/ha,9.0
same,herbicidal rating ABUTH,ABUTH (Velvetleaf); rate 0.0156 kg/ha,9.0
same,herbicidal rating ABUTH,ABUTH (Velvetleaf); rate 0.0313 kg/ha,9.0
same,herbicidal rating ABUTH,ABUTH (Velvetleaf); rate 0.0625 kg/ha,9.0
same,herbicidal rating GALAP,GALAP (Galium); rate 0.0156 kg/ha,0.0
same,herbicidal rating GALAP,GALAP (Galium); rate 0.0313 kg/ha,2.0
same,herbicidal rating GALAP,GALAP (Galium); rate 0.0625 kg/ha,3.0
same,herbicidal rating SETVI,"SETVI (Foxtail, Green); rate 0.0156 kg/ha",2.0
same,herbicidal rating SETVI,"SETVI (Foxtail, Green); rate 0.0313 kg/ha",3.0
same,herbicidal rating SETVI,"SETVI (Foxtail, Green); rate 0.0625 kg/ha",9.0
same,"herbicidal effect rating, CYPIR",CYPIR (Rice Flatsedge); 0.0313 kg/ha,9.0
same,"herbicidal effect rating, CYPIR",CYPIR (Rice Flatsedge); 0.0625 kg/ha,9.0
same,"herbicidal effect rating, CYPIR",CYPIR (Rice Flatsedge); 0.1250 kg/ha,9.0
same,"herbicidal effect rating, CYPIR",CYPIR (Rice Flatsedge); 0.2500 kg/ha,9.0
same,herbicidal rating ORYSAT,"ORYSAT (Rice, Tebonnet); rate 0.0156 kg/ha",2.0
same,herbicidal rating ORYSAT,"ORYSAT (Rice, Tebonnet); rate 0.0313 kg/ha",2.5
same,herbicidal rating ORYSAT,"ORYSAT (Rice, Tebonnet); rate 0.0625 kg/ha",3.5
same,"herbicidal effect rating, MOOVA",MOOVA (Monochoria); 0.0313 kg/ha,9.0
same,"herbicidal effect rating, MOOVA",MOOVA (Monochoria); 0.0625 kg/ha,9.0
same,"herbicidal effect rating, MOOVA",MOOVA (Monochoria); 0.1250 kg/ha,9.0
same,"herbicidal effect rating, MOOVA",MOOVA (Monochoria); 0.2500 kg/ha,9.0
same,herbicidal rating ECHCG,ECHCG (Barnyardgrass); rate 0.0156 kg/ha,2.0
same,herbicidal rating ECHCG,ECHCG (Barnyardgrass); rate 0.0313 kg/ha,2.0
same,herbicidal rating ECHCG,ECHCG (Barnyardgrass); rate 0.0625 kg/ha,3.0
same,Preemergence herbicidal rating IPOHE,[3]; 0.0156 kg/ha,1.0
same,Preemergence herbicidal rating IPOHE,[3]; 0.0313 kg/ha,4.0
same,Preemergence herbicidal rating IPOHE,[3]; 0.0625 kg/ha,7.0
same,Preemergence herbicidal rating IPOHE,[3]; [4],9.0
same,Preemergence herbicidal rating IPOHE,[3]; [5],9.0
